Assay results published in patent US20110218343A1, “SMALL MOLECULE INHIBITORS OF ROTAMASE ENZYME ACTIVITY” (GLIAMED, INC., priority 1995, published 2011).

Experiments:
[1] = system: chick dorsal root ganglia (DRG) explants; assay: Neurite outgrowth in chick dorsal root ganglion cultures; assay type: cell-based; conditions: whole ganglion explants from ten day chick embryos; neurites counted 48 hours after drug treatment
Method: Dorsal root ganglia were dissected from chick embryos of ten day gestation. Whole ganglion explants were cultured on thin layer Matrigel-coated 12 well plates with Liebovitz L15 plus high glucose media supplemented with 2 mM glutamine and 10% fetal calf serum, and also containing 10 μM cytosine .β-D arabinofuranoside (Ara C) at 37° C. in an environment containing 5% CO2. Twenty-four hours later, the DRGs were treated with various concentrations of nerve growth factor, immunophilin ligands or combinations of NFG plus drugs. Forty-eight hours after drug treatment, the ganglia were visualized under phase contrast or Hoffman Modulation contrast with a Zeiss Axiovert inverted microscope. Photomicrographs of the explants were made, and neurite outgrowth was quantitated. Neurites longer than the DRG diameter were counted as positive, with total number of neurites quantitated per each experimental condition. Three to four DRGs are cultured per well, and each treatment was performed in duplicate.

[2] = target: FKBP (Homo sapiens, UniProt P62942); assay: FKBP rotamase (peptidyl-prolyl isomerase) inhibition, chymotrypsin-coupled assay; assay type: biochemical; conditions: apparent Ki; cis-trans isomerization of model substrate N-succinyl-Ala-Ala-Pro-Phe-p-nitroanilide, absorbance at 390 nm
FKBP, sequence (P62942 whole entry): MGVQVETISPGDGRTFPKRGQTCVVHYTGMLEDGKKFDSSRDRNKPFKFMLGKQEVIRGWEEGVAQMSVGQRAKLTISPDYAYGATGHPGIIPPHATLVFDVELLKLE

Structure (SMILES)	ED50 (Neurite Outgrowth in Chick DRG) [1] [µM]	Ki [2] [µM]
CCC(C)(C)C(=O)C(=O)N1CCC[C@H]1C(=O)OCCCc1ccccc1 [Example 4, 3-phenyl-1-propyl(2S)-1-(3,3-dimethyl-1,2-dioxopentyl)-2-pyrrolidinecarboxylate]	0.053	–
CCC(C)(C)C(=O)C(=O)N1CCC[C@H]1C(=O)OC/C=C/c1ccc(Cl)c(Cl)c1 [Example 8, 3-(4,5-Dichlorophenyl)-1-prop-2-(E)-enyl(2S) -1-(3,3-dimethyl-1,2-dioxopentyl)-2-pyrrolidinecarboxylate]	0.85	–
CCOC(=O)[C@H](Cc1ccccc1)NC(=O)[C@@H]1CCCN1C(=O)C(=O)C(C)(C)CC [Example 24, 1-[1-(3,3-dimethyl-1,2-dioxopentyl)-L-proline]-L-phenylalanine ethyl ester]	–	9
CCC(C)(C)C(=O)C(=O)N1CCC[C@H]1C(=O)OC/C=C/c1ccc2c(c1)OCO2 [Example 9, 3-(4,5-Methylenedioxyphenyl)-1-prop-2-(E)-enyl(2S)-1-(3,3-dimethyl-1,2-dioxopentyl)-2-pyrrolidinecarboxylate]	0.075	–
CCC(C)(C)C(=O)C(=O)N1CCC[C@H]1C(=O)OCCCc1cc(OC)c(OC)c(OC)c1 [Example 6, 3-(3,4,5-Trimethoxyphenyl)-1-propyl(2S)-1-(3,3-dimethyl-1,2-dioxopentyl)-2-pyrrolidinecarboxylate]	0.149	–
CCC(C)(C)C(=O)C(=O)N1CCC[C@H]1C(=O)OC/C=C/c1cc(OC)c(OC)c(OC)c1 [Example 7, 3-(3,4,5-Trimethoxyphenyl)-1-prop-2-(E)-enyl(2S)-1-(3,3-dimethyl-1,2-dioxopentyl)-2-pyrrolidinecarboxylate]	0.19	–
